Results on one compound are retold here after patent US10617710B2, “Agent for sedating response to external stimulation in skin and method for sedating that response” (Shiseido Company, Ltd, priority 2014, dated 2020).

Each structure is given as a SMILES string.

In this data set the test system is CD39 gene expression. Briefly: CD39 expression promoting effect in human Langerhans cell-like cells (THP-1) under dexamethasone stress, RT-PCR. The following applies: THP-1 cells, 10 nM dexamethasone added, versus dexamethasone non-addition group. Format: cell-based.

Method: THP-1 cells (American Type Culture Collection, VA, USA) were used as a substitute for human Langerhans cells. Approximately 200,000 THP-1 cells were cultured to confluence in RPMI1640 medium containing 10% FBS. Following culturing, stress hormone in the form of 10 nM dexamethasone was added followed by the respective addition of 0.1% polyoxyethylene (POE) 14/polyoxypropylene (POP) 7 random copolymer dimethyl ether (A), 0.01% of a 2% aqueous solution of sodium carboxymethyl-beta glucan (CM-Glucan, Mibelle Biochemistry) (B) and 0.1% rosewater (Bulgaria Rose Water, Toyotama International) (C). Moreover, a three-type mixture group (ABC) was added that incorporated one-third each of all three components. After culturing for 24 hours after addition, RNA was extracted using Isogen (Wako Pure Chemical Industries) followed by synthesis of cDNA using Superscript III and random primers (Invitrogen). RT-PCR was carried out with the Prism 7900HT (ABI) using SYBR Green (Invitrogen) and the primers indicated below.
During this RT-PCR, ribosomal protein S9 was used as normalization factor.

`C[C@@H]1C[C@H]2[C@@H]3CCC4=CC(=O)C=C[C@]4(C)[C@@]3(F)[C@@H](O)C[C@]2(C)[C@@]1(O)C(=O)CO` [dexamethasone]: the “CD39 gene expression level (RT-PCR, normalized to ribosomal protein S9)” value is reported as “expression of CD39 decreased”.
